According to article PMC10740425, “How Deep Learning in Antiviral Molecular Profiling Identified Anti-SARS-CoV-2 Inhibitors” (Biomedicines, 2023):

Legend:
SARS-CoV-2 [1] = format: cell-based; conditions: Calu-3 cells, treated 1 h post-infection, up to 10 µM, 72 h
[2] = Mouse infection model, body weight changes; format: in vivo, BALB/C mice; conditions: infected mice, 5 mg/kg intranasally, four-day observation
SARS-CoV-2 [3] = conditions: Calu-3 cells, 5 µM, pre-treated 2 h, MOI 0.1, 72 h
Calu-3 cells = conditions: uninfected Calu-3 cells, concentrations up to 10 µM, normalized to DMSO

Row | Compound | viral progeny / inhibitory effect (plaque assay, Western blotting) (SARS-CoV-2 [1]) | weight changes versus control group [2] | antiviral activity (intracellular virus, immunofluorescence staining) (SARS-CoV-2 [3]) | cellular toxicity (Calu-3 cells)
1 | Cn1cnc([N+](=O)[O-])c1Sc1ncnc2nc[nH]c12 [azathioprine] | significant reduction in viral progeny | no significant difference in weight changes | antiviral activity comparable to established nucleoside analog inhibitors | low cellular toxicity
2 | O=P(O)(O)OC[C@H]1O[C@@H](n2cnc3c(S)ncnc32)[C@H](O)[C@@H]1O [thioinosinic acid] | notable antiviral efficacy | no significant difference in weight changes | – | –
3 | CC(C)C(=O)OC[C@H]1O[C@@H](n2ccc(NO)nc2=O)[C@H](O)[C@@H]1O [molnupiravir] | moderate inhibitory effects | – | – | –
